Laboratory results from patent US20240209456A1, “METHODS AND COMPOSITIONS RELATED TO CELL-CYCLE RNA's” (BETH ISRAEL DEACONESS MEDICAL CENTER, priority 2021, published 2024).
“Also recorded” adds a separate entry of the source.

Columns and labels:
H2A.Z = experiment: nascent ChIP-qPCR (nasChIP) with H2A.Z antibody; format: cell-based, human; settings: for restoration of H2A.Z distribution at c-MYC locus after DRB reversal: HL-60, 2 hrs after DRB wash-out, MG149 200 μM, TH1834 500 μM
Description: (§1) To confirm the results of the ChIP-Seq, and to track the deposition of the H2A.Z, acH2A.Z nascent chromatin immunoprecipitation (nasChIP-PCR) was performed with the antibodies to H2A.Z, acH2A.Z and TIP60, as nasChIP-PCR can be used to track histone deposition. Cells were synchronized with a double thymidine block, released into S Phase and treated with DRB for 2 hrs. The medium was supplemented with the EdU DNA analog to enable collection of nascent chromatin DNA (FIG. 4A). […] The results of these experiments provide an important link between the suppressed c-MYC SPEARs expression and the reduced levels of the replacement histone H2A.Z, as an even greater degree of the loss of the acetylated acH2A.Z forms at the TSS of the c-MYC locus. Similar results were obtained for another gene locus, PU1 (FIG. 4F, right panels).
Cells were synchronized with a double thymidine block and released into S Phase with DMSO/DRB added. After 2 hours (during which H2A.Z levels remained unaffected, but SPEARs and mRNA levels drop, see FIG. 10A), cells were washed and then incubated for a further 2 hours with or without the TIP60 inhibitors. This interval is sufficient for the levels of both the c-MYC mRNAs and its SPEARs to be restored when the TIP60 inhibitors are absent (results shown in FIG. 11B). […] Collected RNAs were biotinylated by click chemistry, isolated on streptavidin beads and analyzed by nas-qRT-PCR (see “Methods” below for details; FIG. 8A; bottom panel).
To further confirm that SPEARs realize their c-MYC regulatory function directly through the TIP60/acH2A.Z pathway, the differences in chromatin occupancy of H2A.Z, acH2A.Z and TIP60 were assessed after inhibition of transcription (“DRB”), reversal of inhibition (“DRB REV”) and reversal of inhibition in the presence of the two TIP60 inhibitors, using nasChIP-qPCR. […] Furthermore, no enrichments of H2A.Z, acH2A.Z or TIP60 was detected within the Gene Desert locus (FIG. 11C). […]

TIP60 = TIP60 (Homo sapiens, UniProt Q92993); experiment: nascent ChIP-qPCR (nasChIP) with TIP60 antibody; format: cell-based; design: endogenous in cells; host or cells: HL-60; settings: for restoration of TIP60 at c-MYC locus after DRB reversal: HL-60, 2 hrs after DRB wash-out, MG149 200 μM, TH1834 500 μM; for restoration of TIP60 enrichment at PU1 locus after DRB reversal: HL-60, MG149 and TH1834 treatments
Description: as §1
(§2) Cells were synchronized with a double thymidine block and released into S Phase with DMSO/DRB added. After 2 hours (during which H2A.Z levels remained unaffected, but SPEARs and mRNA levels drop, see FIG. 10A), cells were washed and then incubated for a further 2 hours with or without the TIP60 inhibitors. This interval is sufficient for the levels of both the c-MYC mRNAs and its SPEARs to be restored when the TIP60 inhibitors are absent (results shown in FIG. 11B). The medium was supplemented with the EU RNA and EdU DNA analogs to enable collection of nascent RNAs and newly formed chromatin that had escaped the drug-induced inhibition of transcription or acetylation. After 2 hours with the TIP60 inhibitors present (MG-149 at 200 μM and TH1834 at 500 μM), during which the levels of acH2A.Z dropped (see FIG. 11A), cells were crosslinked and subjected to nasChIP and nascent RNA expression analyses (nas-qRT-PCR) (FIG. 6B). Collected RNAs were biotinylated by click chemistry, isolated on streptavidin beads and analyzed by nas-qRT-PCR (see “Methods” below for details; FIG. 8A; bottom panel).
(§3) To further confirm that SPEARs realize their c-MYC regulatory function directly through the TIP60/acH2A.Z pathway, the differences in chromatin occupancy of H2A.Z, acH2A.Z and TIP60 were assessed after inhibition of transcription (“DRB”), reversal of inhibition (“DRB REV”) and reversal of inhibition in the presence of the two TIP60 inhibitors, using nasChIP-qPCR. […] By analyzing the nascent RNAs and chromatin, only the immediate changes in c-MYC expression and TIP60, acH2A.Z and H2A.Z occupancy were examined within the locus as imposed by the inhibition of transcription and/or acetylation. […] When the two HAT inhibitors are present, the reversal of transcriptional inhibition can only restore the enrichment levels of the unmodified H2A.Z and TIP60 (FIG. 6D; left and right panels), but not the levels of acH2A.Z (middle panel). […] Furthermore, no enrichments of H2A.Z, acH2A.Z or TIP60 was detected within the Gene Desert locus (FIG. 11C). […] Similar results were obtained for the PU.1 locus (FIG. 11D and FIG. 11E). These findings using nasChIP are in line with the general trend obtained globally by ChIP-Seq. (FIG. 4C).
(§4) Nascent RNA/DNA capture was performed using Click-iT Nascent RNA Capture Kit (ThermoFisher) according to the manufacturer's instructions with minor modifications. Briefly, 1. Labeling the cells with EU/EdU. 200 mM EU or 30 mM EdU stock solutions were added to the cells, to a final concentration 0.5 mM or 30 μM, respectively. 2. Incubation. The cells were incubated for 1 or 2 hours. 3. RNA/DNA isolation. The cells were harvested and the RNA/DNA were isolated and dissolved in 14 μL of H2O. 4. Biotinylation of RNA/DNA by Click reaction. Click-iT reaction cocktail (50 μL per reaction) was prepared accordingly to manufacturer's instructions: a mixture containing 1× Click-iT EU buffer; 2 mM CuSO4; 1 mM Biotin azide; 13.25 μL of the isolated RNA; 10 mM Click-iT reaction buffer additive 1; 12 mM Click-iT reaction buffer additive 2 was prepared. After adding each component, the reaction cocktail was gently mixed by vortexing. […]

acH2A.Z = experiment: nascent ChIP-qPCR (nasChIP) with acH2A.Z antibody; format: cell-based, human; settings: for restoration of acH2A.Z at c-MYC locus after DRB reversal: HL-60, 2 hrs after DRB wash-out, MG149 200 μM, TH1834 500 μM; for restoration of acH2A.Z enrichment at PU1 locus after DRB reversal: HL-60, MG149 and TH1834 treatments
Description: as §1, §2, §3, §4

[1] = HL-60 released into S Phase, DRB 2 hrs

Chain of TIP60 (Q92993 whole entry): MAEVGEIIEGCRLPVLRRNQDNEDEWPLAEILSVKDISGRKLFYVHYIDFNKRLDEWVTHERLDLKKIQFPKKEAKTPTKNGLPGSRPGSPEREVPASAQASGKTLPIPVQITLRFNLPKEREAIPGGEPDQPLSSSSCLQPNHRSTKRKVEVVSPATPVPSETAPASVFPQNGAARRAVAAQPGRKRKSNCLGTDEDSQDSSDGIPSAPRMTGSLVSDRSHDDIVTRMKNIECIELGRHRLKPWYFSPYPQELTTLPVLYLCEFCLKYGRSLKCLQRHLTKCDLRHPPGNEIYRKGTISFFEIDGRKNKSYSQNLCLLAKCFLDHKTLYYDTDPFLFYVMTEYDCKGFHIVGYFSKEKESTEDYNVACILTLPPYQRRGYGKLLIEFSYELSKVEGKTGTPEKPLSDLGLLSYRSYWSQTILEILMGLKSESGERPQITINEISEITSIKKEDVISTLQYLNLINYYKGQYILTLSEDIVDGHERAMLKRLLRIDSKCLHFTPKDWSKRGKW

OC[C@H]1O[C@@H](n2cnc3cc(Cl)c(Cl)cc32)[C@H](O)[C@@H]1O [DRB, 5,6-Dichlorobenzimidazole 1-β-D-ribofuranoside]
H2A.Z enrichment at c-MYC locus (H2A.Z; [1]): diminished enrichment; also recorded: partial loss
TIP60 enrichment at PU1 locus (TIP60; HL-60, DRB treatment): loss
TIP60 enrichment at c-MYC locus (TIP60; [1]): diminished enrichment and loss
acH2A.Z enrichment at PU1 locus (acH2A.Z; HL-60, DRB treatment): loss
acH2A.Z enrichment at c-MYC locus (acH2A.Z; [1]): diminished enrichment and loss

CCCCCCCc1ccc(CCc2cccc(O)c2C(=O)O)cc1 [MG149]
restoration of H2A.Z distribution at c-MYC locus after DRB reversal (H2A.Z): only slightly affecting
restoration of TIP60 at c-MYC locus after DRB reversal (TIP60): only slightly affecting
restoration of TIP60 enrichment at PU1 locus after DRB reversal (TIP60): without affecting
restoration of acH2A.Z at c-MYC locus after DRB reversal (acH2A.Z): prevents the restoration
restoration of acH2A.Z enrichment at PU1 locus after DRB reversal (acH2A.Z): preventing the restoration

O=C(O)Cn1nnc(-c2ccc(CN(CCCCOc3ccc(CN4CCCC4)cc3)CCc3ccccc3)cc2)n1 [TH1834]
restoration of H2A.Z distribution at c-MYC locus after DRB reversal (H2A.Z): only slightly affecting
restoration of TIP60 at c-MYC locus after DRB reversal (TIP60): only slightly affecting
restoration of TIP60 enrichment at PU1 locus after DRB reversal (TIP60): without affecting
restoration of acH2A.Z at c-MYC locus after DRB reversal (acH2A.Z): prevents the restoration
restoration of acH2A.Z enrichment at PU1 locus after DRB reversal (acH2A.Z): preventing the restoration
